# Data published in PMC2860192 (ACS chemical neuroscience, 2010).
# Tests used:
# Format in all cases: cell-based
# [1] = target: GluR6 (GluR6(R), edited version), homomeric KA-type receptor (Rattus norvegicus, UniProt P42260, Q621R); test: two-electrode voltage clamp, Xenopus oocytes, block of kainate current
# [2] = system: AMPA receptors expressed by rat cerebral cortex mRNA; test: as above; settings: competitive antagonist; 100 μM kainate; −80 mV; pH 7.4; 19–21°C
# [3] = system: metabotropic glutamate receptors (mGluRs, group I) expressed by rat brain mRNA; settings: antagonist test, 10 μM quisqualate in the cerebellum mRNA test
# [4] = target: T1, GluR3 (GluR3o, flop variant), homomeric AMPA-type receptor (Rattus norvegicus, UniProt P19492); test: two-electrode voltage clamp, Xenopus oocytes, block of kainate current
# [5] = target: T1, GluR3 (GluR3o, flop variant), homomeric AMPA-type receptor; test: two-electrode voltage clamp, Xenopus oocytes, agonist-evoked current; settings: 100 μM, −80 mV, pH 7.4
# Chain of GluR6 (GluR6(R), edited version), homomeric KA-type receptor (P42260 32-908 Q621R): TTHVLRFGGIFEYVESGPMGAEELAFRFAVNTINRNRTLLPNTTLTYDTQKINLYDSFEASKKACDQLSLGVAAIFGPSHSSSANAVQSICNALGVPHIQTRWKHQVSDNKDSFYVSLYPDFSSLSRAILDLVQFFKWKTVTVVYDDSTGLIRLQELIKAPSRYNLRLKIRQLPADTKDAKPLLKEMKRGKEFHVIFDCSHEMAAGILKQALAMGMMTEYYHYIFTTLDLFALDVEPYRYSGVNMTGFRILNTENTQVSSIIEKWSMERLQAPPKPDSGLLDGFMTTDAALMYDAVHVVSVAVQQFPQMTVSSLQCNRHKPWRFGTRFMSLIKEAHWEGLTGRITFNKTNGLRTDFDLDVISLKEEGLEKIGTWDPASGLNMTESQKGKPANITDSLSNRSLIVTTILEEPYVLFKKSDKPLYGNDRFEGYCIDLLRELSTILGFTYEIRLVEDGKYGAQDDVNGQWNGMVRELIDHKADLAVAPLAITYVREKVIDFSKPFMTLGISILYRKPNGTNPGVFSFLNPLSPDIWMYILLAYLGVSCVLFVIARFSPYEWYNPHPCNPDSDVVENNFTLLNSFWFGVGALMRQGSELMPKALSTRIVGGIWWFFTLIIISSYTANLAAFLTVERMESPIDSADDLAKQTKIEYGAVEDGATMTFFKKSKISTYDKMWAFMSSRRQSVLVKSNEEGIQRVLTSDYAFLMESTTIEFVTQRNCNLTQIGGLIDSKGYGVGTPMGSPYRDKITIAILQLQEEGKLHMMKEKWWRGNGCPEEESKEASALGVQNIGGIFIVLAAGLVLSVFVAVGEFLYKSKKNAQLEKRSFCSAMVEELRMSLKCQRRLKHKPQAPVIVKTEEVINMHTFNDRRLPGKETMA
IC50 [1] [nM],IC50 [2] [nM],IC50 [3] [nM],IC50 [4] [nM],Compound,"two-electrode voltage clamp, Xenopus oocytes, agonist-evoked current [5]"
~100000,242 ± 37,> 100000,502 ± 55,N[C@@H](C(=O)O)[C@H](O)[C@@]1(C(=O)O)CC[C@H](C[C@H](NC(=O)c2cc(Cl)c(O)c(Cl)c2)C(=O)O)N1 [(−)-kaitocephalin],
,,,,C=C(C)[C@H]1CN[C@H](C(=O)O)[C@H]1CC(=O)O [kainate],"GluR3 receptors, similarly to the AMPA receptors expressed by mRNA, generated large KA-currents"
